Assay results taken from patent publication US20250346604A1, “TRIAZOLOPYRIDAZINE COMPOUNDS USEFUL AS RAC1 INHIBITORS” (Revere Pharmaceuticals, priority 2022, published 2025).
Read-outs that look alike come from different tables or passages of the source. Values belong to the compound of their own block, whether it stands above or below them.

Legend:
[1] = biological target: T1, Rac1 (Homo sapiens (Human), UniProt P63000); assay: Rac Activation AlphaScreen Assay (RacI AS); type: biochemical
Method: 2. Rac Activation AlphaScreen Assay (RacI AS)
AlphaScreen® assays were performed in 96-well microplates in a final reaction volume of 60 μL. Recombinant His-Rac1, recombinant GST-PBD (PAK Binding Domain), donor and acceptor beads (PerkinElmer), and inhibitors were incubated in exchange buffer (20 mM Tris pH 7.5, 50 mM NaCl, 1 mM MgCl2, 1 mM EDTA, 500 nM GTPyS (guanosine 5′-[Y-thio]triphosphate)) at 37° C. Readings were performed on a Tecan M 1000 pro microplate reader after 1 hour. Data was analyzed using the GraphPad Prism software (GraphPad Software, Inc.), and IC50 (dose leading to 50% disruption of complex) was calculated from the dose-response curves.

[2] = tested on: MCF-7 human breast cancer cell line; assay: Cell Viability Assay (MCF7); type: cell-based; details: MCF7, three days after drug treatment
Method: 1. Cell Viability Assay (MCF7)
In order to determine a compound's effect on cell viability, PrestoBlue assays were performed as previously described by Kuhn et al. (2013) with modifications. MCF-7 human breast cancer and IGR-1 human melanoma cell lines were seeded into 384-well plates 24 hours prior to addition of drug. Cells are treated with 0 to 100 μM (concentrations) of compound solubilized in DMSO, adjusting the final concentration of DMSO to 0.5% in the well. Three days after drug treatment, cell viability was measured by adding Cell Titer Glo (Promega.; cat. No. G7570) according to the manufacturer's instructions. Briefly, Cell Titer Glo Substrate is diluted in Cell Titer Glo Buffer making the Cell Titer Glo Reagent. Cell Titer Glo Reagent is added to each well, mixed for 2 minutes to lyse cell, and then luficerase signal is read on a plate reader. Data is analyzed using the GraphPad Prism software (GraphPad Software, Inc.), and IC50 (dose leading to 50% cell death) was calculated from the dose-response curves. The percentage of living cells was then computed by comparison with control wells. Kuhn, Jonas et al., Assay and Drug Development Technologies, March 2013, Label-Free Cytotoxicity Screening Assay by Digital Holographic Microscopy.

[3] = Mouse Liver Microsome (MLM) Stability Assay; type: in vitro ADME; details: for microsomal CLint / MLM Clearance (μL/min/mg protein): mouse liver microsomes
Method: 5. Mouse Liver Microsome (MLM) Stability Assay
Incubation of test compounds with mouse liver microsomes in the presence of NADPH co-factor was used to assay the in vitro mouse liver microsome metabolic clearance rate. In the presence of the co-factor NADPH, which initiates the reaction, mouse liver microsomes were incubated with test compounds at 37° C. at fixed time intervals. After centrifugation, supernatants were measured by LC/M S. The amount of compound at each time interval was compared to the amount of compound present at the 0 minute timepoint and percentage compound remaining values were calculated. MLM intrinsic clearance (Clint) (μL/min/mg protein) is calculated based on compound half-life.

[4] = tested on: over 90 kinases; assay: commercial kinase screen (KinaseScan by Eurofins Discovery); type: binding; details: at a concentration that was substantially inhibitory for Rac1
Method: (§1) The disclosed compounds in general have no or minimal activity against c-M et. Representative compounds were tested in a commercial kinase screen of over 90 kinases (KinaseScan by Eurofins Discovery).

[5] = biological target: c-M et (Homo sapiens (Human), UniProt P08581); assay: commercial kinase screen (KinaseScan by Eurofins Discovery), c-Met; type: binding; details: at a concentration that was substantially inhibitory for Rac1
Chain of c-M et (P08581 25-1390): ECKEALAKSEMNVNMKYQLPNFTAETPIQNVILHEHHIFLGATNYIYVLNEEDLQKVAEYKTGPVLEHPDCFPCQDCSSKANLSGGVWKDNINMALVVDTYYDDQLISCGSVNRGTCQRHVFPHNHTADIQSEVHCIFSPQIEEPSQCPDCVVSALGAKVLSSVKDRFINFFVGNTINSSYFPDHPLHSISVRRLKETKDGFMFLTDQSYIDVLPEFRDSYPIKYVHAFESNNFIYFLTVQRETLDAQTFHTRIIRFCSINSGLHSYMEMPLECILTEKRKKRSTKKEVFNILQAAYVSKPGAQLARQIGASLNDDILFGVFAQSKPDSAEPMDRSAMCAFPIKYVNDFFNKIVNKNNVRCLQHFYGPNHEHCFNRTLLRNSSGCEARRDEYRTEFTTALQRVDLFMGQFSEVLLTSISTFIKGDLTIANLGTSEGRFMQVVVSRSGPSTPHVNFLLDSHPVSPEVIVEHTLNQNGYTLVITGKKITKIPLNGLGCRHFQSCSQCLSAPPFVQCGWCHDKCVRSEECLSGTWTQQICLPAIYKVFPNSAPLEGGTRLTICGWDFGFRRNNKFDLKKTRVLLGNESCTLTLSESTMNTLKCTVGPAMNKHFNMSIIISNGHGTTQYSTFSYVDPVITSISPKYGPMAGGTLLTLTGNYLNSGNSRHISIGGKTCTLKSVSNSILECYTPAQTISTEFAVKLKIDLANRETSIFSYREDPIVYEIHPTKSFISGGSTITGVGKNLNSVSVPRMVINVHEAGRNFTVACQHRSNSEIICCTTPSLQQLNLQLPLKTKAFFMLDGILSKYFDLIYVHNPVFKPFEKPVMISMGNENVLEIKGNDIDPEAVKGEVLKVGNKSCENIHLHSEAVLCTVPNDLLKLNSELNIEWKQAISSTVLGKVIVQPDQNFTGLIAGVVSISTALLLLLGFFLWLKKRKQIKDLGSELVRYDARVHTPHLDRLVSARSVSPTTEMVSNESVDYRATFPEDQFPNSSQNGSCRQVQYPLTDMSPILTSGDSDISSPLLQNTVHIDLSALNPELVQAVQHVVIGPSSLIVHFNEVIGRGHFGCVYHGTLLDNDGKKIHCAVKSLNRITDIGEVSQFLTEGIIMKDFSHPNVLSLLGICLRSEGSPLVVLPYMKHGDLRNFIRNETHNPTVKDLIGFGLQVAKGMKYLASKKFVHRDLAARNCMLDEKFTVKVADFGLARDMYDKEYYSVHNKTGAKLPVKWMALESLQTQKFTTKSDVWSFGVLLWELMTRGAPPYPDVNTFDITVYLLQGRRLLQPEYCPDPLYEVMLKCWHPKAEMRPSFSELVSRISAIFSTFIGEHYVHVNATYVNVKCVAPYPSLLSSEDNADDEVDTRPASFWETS
Method: as §1

[6] = biological target: T1, Rac1; assay: Rac Activation AlphaScreen Assay (RacI AS); type: biochemical; details: wild type Rac1, AlphaLisa assay; read-out: IC50 inhibitory concentration versus wild type Rac1
[7] = biological target: Rac (Homo sapiens (Human), UniProt P63000); details: versus NSC23766; cited from earlier work
[8] = oral administration in mice; cited from earlier work
[9] = tested on: estrogen positive and HER2 positive breast cancer, prostate cancer, melanoma and colorectal cancer; details: single agent and in combination with standard of care; cited from earlier work
[10] = Table 4, comparator compounds, read-out: IC50
[11] = Table 3, other compounds of Formula I, read-out: IC50
[12] = Table 1, Formula I-A, read-out: Activity
[13] = Table 2, Formula I-B, read-out: IC50
[14] = NADPH, 37° C., read-out: MLM Clearance (μL/min/mg protein)

Structure (SMILES): COc1ccc(OC)c(C(=O)Nc2cccc(-c3ccc4nnc(-c5ccc(C)o5)n4n3)c2)c1 [Comparator 3, reference compound]
IC50 [1, 10]: > 10 µM | IC50 ([1]; read-out: Rac1 IC50): > 5 µM

Structure (SMILES): Cc1ccc(-c2nnc3ccc(-c4cccc(NC(=O)c5ccc(F)cc5)c4)nn23)s1 [Compound 304]
IC50 [1, 11]: ≤ 1 µM | IC50 ([1]; read-out: Rac1 IC50): 0.69 µM | IC50 [2]: 19.8 µM

IC50 [1, 12]: ≤ 1 µM | MLM clearance [3]: below 50 μL/min/mg protein
Structure (SMILES): CCc1cccc(C(=O)Nc2cccc(-c3ccc4nnc(-c5ccc(C)o5)n4n3)c2)c1 [Compound 111, 3-ethyl-N-(3-(3-(5-methylfuran-2-yl)-[1,2,4]triazolo[4,3-b]pyridazin-6-yl)phenyl) benzamide]

Structure (SMILES): Cc1ccc(-c2nnc3ccc(-c4cccc(NC(=O)c5cccc(Cl)c5)c4)nn23)o1 [Compound 119, 3-chloro-N-(3-(3-(5-(methyl-d3)furan-2-yl)-[1,2,4]triazolo[4,3-b]pyridazin-6-yl)phenyl) benzamide]
IC50 ([1]; read-out: Rac1 IC50): 1.5 µM | IC50 [2]: 6.3 µM

Structure (SMILES): O=C(Nc1cccc(-c2ccc3nnc(-c4cncs4)n3n2)c1)c1ccc(F)cc1 [Compound 201, 4-fluoro-N-(3-(3-(thiazol-5-yl)-[1,2,4]triazolo[4,3-b]pyridazin-6-yl)phenyl)benzamide]
IC50 [1, 13]: ≤ 1 µM | IC50 ([1]; read-out: Rac1 IC50): 0.17 µM | IC50 ([2]; Homo sapiens, 72 h): 3.1 µM | microsomal CLint [3, 14]: 15.5 µL/min/mg

Structure (SMILES): Cc1ccc(-c2nnc3ccc(-c4cccc(NC(=O)c5cccc(Cl)c5)c4)nn23)s1 [Compound 303]
IC50 [1, 11]: 1 to 10 µM | IC50 ([1]; read-out: Rac1 IC50): > 5 µM | IC50 [2]: > 10 µM

Structure (SMILES): COc1cccc(C(=O)Nc2cccc(-c3ccc4nnc(-c5ccc(C)o5)n4n3)c2)c1 [Compound 100]
IC50 [1, 12]: ≤ 1 µM | IC50 ([1]; read-out: Rac1 IC50): 0.08 µM | IC50 [2]: 11.3 µM

Structure (SMILES): Cc1ccc(-c2nnc3ccc(-c4cccc(NC(=O)c5cccc(Cl)c5)c4)nn23)o1 [Compound 102, 3-chloro-N-(3-(3-(5-methylfuran-2-yl)-[1,2,4]triazolo[4,3-b]pyridazin-6-yl)phenyl)benzamide]
IC50 [1, 12]: ≤ 1 µM | IC50 ([1]; read-out: Rac1 IC50): 0.52 µM | IC50 ([2]; Homo sapiens, 72 h): 1.4 µM | microsomal CLint [3, 14]: 19.7 µL/min/mg | activity against all kinases tested [4]: inactive | activity against c-Met [5]: inactive

IC50 [1, 12]: ≤ 1 µM | microsomal CLint ([3]; mouse, read-out: MLM clearance): < 50 µL/min/mg
Structure (SMILES): CCc1cc(C(=O)Nc2cccc(-c3ccc4nnc(-c5ccc(C)o5)n4n3)c2)ccc1F [Compound 114, 3-ethyl-4-fluoro-N-(3-(3-(5-methylfuran-2-yl)-[1,2,4]triazolo[4,3-b]pyridazin-6-yl)phenyl)benzamide]

Structure (SMILES): COc1ccc(C(=O)Nc2cccc(-c3ccc4nnc(-c5ccc(C)o5)n4n3)c2)cc1OC [Comparator 1, reference compound]
IC50 [1, 10]: 1 to 10 µM | IC50 ([1]; read-out: Rac1 IC50): > 5 µM

IC50 [6]: ~10 µM
Structure (SMILES): CCn1c2ccccc2c2cc(Nc3ccnc(NCCCN4CCOCC4)n3)ccc21 [EHop-016]
efficiency as an inhibitor of Rac activity relative to NSC23766 [7]: 100 fold | systemic exposure [8]: low systemic exposure

Structure (SMILES): COc1cc(C(=O)Nc2cccc(-c3ccc4nnc(-c5ccc(C)o5)n4n3)c2)cc(OC)c1OC [Comparator 2, reference compound]
IC50 [1, 10]: > 10 µM | IC50 ([1]; read-out: Rac1 IC50): > 5 µM

IC50 [1, 12]: ≤ 1 µM
Structure (SMILES): Cc1ccc(-c2nnc3ccc(-c4cccc(NC(=O)c5cccc(SC(C)C)c5)c4)nn23)o1 [Compound 109, 3-(isopropylthio)-N-(3-(3-(5-methylfuran-2-yl)-[1,2,4]triazolo[4,3-b]pyridazin-6-yl)phenyl)benzamide]

Structure (SMILES): Cc1ccc(-c2nnc3ccc(-c4cccc(NC(=O)c5ccc(F)c(Cl)c5)c4)nn23)o1 [Compound 103, 3-chloro-4-fluoro-N-(3-(3-(5-methylfuran-2-yl)-[1,2,4]triazolo[4,3-b]pyridazin-6-yl)phenyl)benzamide]
IC50 [1, 12]: ≤ 1 µM | IC50 ([1]; read-out: Rac1 IC50): 0.43 µM | IC50 ([2]; Homo sapiens, 72 h): 2.3 µM | microsomal CLint [3, 14]: 4.5 µL/min/mg

Structure (SMILES): COc1cccc(C(=O)Nc2cccc(-c3ccc4nnc(-c5cncs5)n4n3)c2)c1 [Compound 200]
IC50 [1, 13]: ≤ 1 µM | IC50 ([1]; read-out: Rac1 IC50): 0.24 µM | IC50 [2]: 1.8 µM | MLM Clearance (μL/min/mg protein) ([3]; NADPH, 37° C.): 54 μL/min/mg protein

Structure (SMILES): Cc1ccc(-c2nnc3ccc(-c4cccc(NC(=O)c5ccc(F)c(F)c5)c4)nn23)o1 [Compound 106]
IC50 [1, 12]: ≤ 1 µM | IC50 ([1]; read-out: Rac1 IC50): 0.27 µM | IC50 [2]: 3.5 µM | MLM clearance [3]: below 50 μL/min/mg protein | MLM Clearance (μL/min/mg protein) ([3]; NADPH, 37° C.): 28.2 μL/min/mg protein

Structure (SMILES): FC(F)(F)c1ccc2c(SCCCCCCn3cnc(CN4CCOCC4)c3)ccnc2c1 [GY S32661]
activity against animal models of cancer [9]: very good activity

Structure (SMILES): Cc1ccc(-c2nnc3ccc(-c4cccc(NC(=O)c5cccc(F)c5)c4)nn23)o1 [Compound 105]
IC50 [1, 12]: ≤ 1 µM | IC50 ([1]; read-out: Rac1 IC50): 0.15 µM | IC50 [2]: 2 µM | MLM Clearance (μL/min/mg protein) ([3]; NADPH, 37° C.): 38.7 μL/min/mg protein
